What was measured:
[1] = target: T1, proteasome Caspase-like (C-L) activity (Mus musculus, UniProt P70195+Q60692); assay: Pharmacodynamic proteasome activity in murine red blood cells, C-L; format: in vivo, NOD/SCID mice; conditions: iv, mice, 2 mg/kg i.v., time 0, read-out: Caspase-like (C-L) mean residual activity relative to vehicle treated controls
T1 construct: RBCs were lysed with assay lysis buffer and incubated on ice for 30 minutes; from tissue; host or cells: red blood cells of NOD/SCID mice
Experimental: Cells were harvested by centrifugation at 1,200 rpm at room temperature. Cell pellets were washed with PBS (phosphate buffered saline) and lysed with assay lysis buffer (50 mM HEPES (N-2-hydroxyethylpiperazine-N′-2-ethanesulfonic acid), pH 7.5; 150 mM NaCl; 1% Triton X-100; 2 mM ATP). Cell lysates were incubated on ice for 30 minutes, mixed by vortex every 5 minutes, and then centrifuged at 12,000 g for 10 minutes. The supernatant was transferred to a 96-well plate. For each assay, 10 μg of total protein were incubated for 1 hour at 37° C. with increasing concentrations (1 nM to 10 μM) of test compound diluted in assay buffer (50 mM tris-HCl (tris(hydroxymethyl)aminomethane-HCl), pH 7.5; 150 mM NaCl). DMSO alone was used as a control in every assay plate. After incubation, a specific fluorogenic proteasome substrate was added to each assay reaction at a final concentration of 40 μM in a total volume of 100 μL. N-Succinyl-Leu-Leu-Val-Tyr-7-amino-4-methylcoumarin (Suc-Leu-Leu-Val-Tyr-AMC) was used for measuring chymotrypsin-like (CT-L) activity, t-butoxycarbonyl-Leu-Arg-Arg-7-amino-4-methylcoumarin (Boc-Leu-Arg-Arg-AMC) for trypsin-like (T-L) activity, and benzyloxycarbonyl-L-leucyl-L-leucyl-L-glutamyl-7-amino-4-methylcoumarin (Z-Leu-Leu-Glu-AMC) for caspase-like (C-L) activity. The excitation wavelength was set at 360 nm and the fluorescence emission wavelength of AMC was detected at 460 nm. The fluorescence of free AMC released during the enzymatic reaction was measured with a SpectraMax M5 fluorescent spectrophotometric plate reader (Molecular Devices, Sunnyvale, Calif.). AMC release rate was measured at 37° C. in a kinetic mode, recording every 5 minutes for 30 minutes. Experiments were performed in triplicate and repeated at least twice.
All mouse experiments were performed in accordance with approval from the Ontario Cancer Institute institutional animal review board. Five- to six-week-old male non-obese diabetic/severe combined immunodeficient (NOD/SCID) mice were grouped randomly (n=3 mice per group). Mice were administered vehicle (5% DMSO, 20% Cremophor) or compounds of Formula I at different doses either intravenously or by oral gavage, and venous blood samples (20-50 μL) were collected from each mouse over 24 hours. Blood samples were mixed with heparin (APP Pharmaceuticals; Schaumburg, Ill.) in 0.5 mL tubes in accordance with the manufacturer's instructions. After centrifugal separation at 3,000 g for 10 minutes, red blood cells (RBCs) in the bottom layer were transferred into a new tube and stored at −70° C. until use. RBCs were lysed with assay lysis buffer and incubated on ice for 30 minutes, mixing by vortex every 5 minutes, and then centrifuged at 12,000 g for 10 minutes. The supernatant was transferred to a 96-well plate and proteasome activity was measured as described above for tumor cell lysates.
Proteasome subunit activity (Chymotrypsin-like, Trypsin-like, Caspase-like, CT-L, T-L, C-L, respectively) were monitored over the course of 24 hrs following […] administration of representative compounds of Formula I. NOD/SCID mice were treated with compounds of Formula I (2 mg/kg by iv administration) or vehicle control and carfilzomib for up to 24 hours, as described above. Table 9 summarizes the data on pharmacodynamic activity of representative compounds of Formula I following a dose of 2 mg/kg intravenous (i.v) administration to mice. Data are presented as mean residual activity (SEM) relative to vehicle treated controls.

COLO 205 = assay: NCI screening panel, COLO 205 (Colon Cancer); format: cell-based, human
Experimental: Representative compounds of Formula I were screened using the National Cancer Institute (NCI) screening panel, which consists of a panel of human tumor cell lines, representing leukemia, melanoma, and cancers of the lung, colon, ovary, breast, prostate and renal system.
After 24 h, two plates of each cell line are fixed in situ with TCA, to represent a measurement of the cell population for each cell line at the time of drug addition (Tz). Experimental drugs are solubilised in dimethyl sulfoxide at 400-fold the desired final maximum test concentration and stored frozen prior to use. At the time of drug addition, an aliquot of frozen concentrate is thawed and diluted to twice the desired final maximum test concentration with complete medium containing 50 μg/mL gentamicin. Additional four, 10-fold or ½ log serial dilutions are made to provide a total of five drug concentrations plus control. Aliquots of 100 μl of these different drug dilutions are added to the appropriate microtiter wells already containing 100 μl of medium, resulting in the required final drug concentrations.
Following drug addition, the plates are incubated for an additional 48 h at 37° C., 5% CO2, 95% air, and 100% relative humidity. For adherent cells, the assay is terminated by the addition of cold TCA (trichloroacetic acid). Cells are fixed in situ by the gentle addition of 50 μl of cold 50% (w/v) TCA (final concentration, 10% TCA) and incubated for 60 minutes at 4° C. The supernatant is discarded, and the plates are washed five times with tap water and air dried. Sulforhodamine B (SRB) solution (100 μl) at 0.4% (w/v) in 1% acetic acid is added to each well, and plates are incubated for 10 minutes at room temperature. After staining, unbound dye is removed by washing five times with 1% acetic acid and the plates are air dried. Bound stain is subsequently solubilised with 10 mM trizma base, and the absorbance is read on an automated plate reader at a wavelength of 515 nm. For suspension cells, the methodology is the same except that the assay is terminated by fixing settled cells at the bottom of the wells by gently adding 50 μl of 80% TCA (final concentration, 16% TCA). Using the seven absorbance measurements [time zero, (Tz), control growth, (C), and test growth in the presence of drug at the five concentration levels (Ti)], the percentage growth is calculated at each of the drug concentrations levels. Percentage growth inhibition is calculated as: [(Ti−Tz)/(C−Tz)]×100 for concentrations for which Ti>/=Tz and [(Ti−Tz)/Tz]×100 for concentrations for which Ti<Tz.
Three dose response parameters are calculated for each experimental agent. Growth inhibition of 50% (GI50) is calculated from [(Ti−Tz)/(C−Tz)]×100=50, which is the drug concentration resulting in a 50% reduction in the net protein increase (as measured by SRB staining) in control cells during the drug incubation. The drug concentration resulting in total growth inhibition (TGI) is calculated from Ti=Tz. The LC50 (concentration of drug resulting in a 50% reduction in the measured protein at the end of the drug treatment as compared to that at the beginning) indicating a net loss of cells following treatment is calculated from [(Ti−Tz)/Tz]×100=−50. Values are calculated for each of these three parameters if the level of activity is reached. However, if the effect is not reached or is exceeded, the value for that parameter is expressed as greater or less than the maximum or minimum concentration tested.

| Compound | remaining activity at 2 mg/kg [1] | Log10GI50 (COLO 205) | Log10LC50 (COLO 205) | Log10TGI50 (COLO 205) |
| --- | --- | --- | --- | --- |
| CC(C)C[C@H](NC(=O)[C@H](COC(F)F)NC(=O)CN1CCOCC1)C(=O)N[C@@H](COC(F)F)C(=O)N[C@@H](CC(C)C)C(=O)[C@@]1(C)CO1 [Example 1, (2S)—N-[(1S)-1-(difluoromethoxymethyl)-2-[[(1S)-3-methyl-1-[(2R)-2-methyloxirane-2-carbonyl]butyl]amino]-2-oxo-ethyl]-2-[[(2S)-3-(difluoromethoxy)-2-[(2-morpholinoacetyl)amino]propanoyl]amino]-4-methyl-pentanamide] | 100% | −7.39 | −5.59 | −6.72 |
| CC(C)C[C@H](NC(=O)[C@H](COC(F)F)NC(=O)CN1CCOCC1)C(=O)N[C@@H](Cc1ccccc1)C(=O)N[C@@H](CC(C)C)C(=O)[C@@]1(C)CO1 [Example 2, (2S)-N-[(1S)-1-benzyl-2-[[(1S)-3-methyl-1-[(2R)-2-methyloxirane-2-carbonyl]butyl]-amino]-2-oxo-ethyl]-2-[[(2S)-3-(difluoromethoxy)-2-[(2-morpholinoacetyl)amino]propanoyl]amino]-4-methyl-pentanamide] | 100% | −7.44 | −5.93 | −6.69 |
| CC(C)C[C@H](NC(=O)[C@H](COC(F)F)NC(=O)CN1CCOCC1)C(=O)N[C@@H](Cc1ccccc1)C(=O)N[C@@H](Cc1ccccc1)C(=O)[C@@]1(C)CO1 [Example 3, (2S)-N-[(1S)-1-benzyl-2-[[(1S)-1-benzyl-2-[(2R)-2-methyloxiran-2-yl]-2-oxo-ethyl]amino]-2-oxo-ethyl]-2-[[(2S)-3-(difluoromethoxy)-2-[(2-morpholinoacetyl)-amino]propanoyl]amino]-4-methyl-pentan-amide] | 100% | −7.73 | −4.53 | −6.48 |
| CC(C)C[C@H](NC(=O)[C@H](COC(F)F)NC(=O)CN1CCOCC1)C(=O)N[C@@H](COC(F)F)C(=O)N[C@@H](Cc1ccccc1)C(=O)[C@@]1(C)CO1 [Example 4, (2S)-N-[(1S)-2-[[(1S)-1-benzyl-2-[(2R)-2-methyloxiran-2-yl]-2-oxo-ethyl]amino]-1-(difluoromethoxymethyl)-2-oxo-ethyl]-2-[[(2S)-3-(difluoromethoxy)-2-[(2-mor-pholinoacetyl)amino]propanoyl]amino]-4 methyl-pentanamide] | 100% | −7.25 | −4.46 | −6.28 |
| CC(C)C[C@H](NC(=O)[C@H](COC(F)F)NC(=O)[C@H](COC(F)F)NC(=O)[C@H](CCc1ccccc1)NC(=O)CN1CCOCC1)C(=O)[C@@]1(C)CO1 [Example 7, (2S)-N-[(1S)-1-(difluoromethoxymethyl)-2-[[(1S)-1-(difluoromethoxymethyl)-2-[[(1S)-3-methyl-1-[(2R)-2-methyloxirane-2-carbo-nyl]butyl]amino]-2-oxo-ethyl]amino]-2-oxo-ethyl]-2-[(2-morpholinoacetyl)amino]-4-phenyl-butanamide] | 100% | −7.23 | >−4.00 | −5.89 |
| CC(C)C[C@H](NC(=O)[C@H](Cc1ccccc1)NC(=O)[C@H](COC(F)F)NC(=O)[C@H](COC(F)F)NC(=O)CN1CCOCC1)C(=O)[C@@]1(C)CO1 [Example 11, (2S)-2-[[(2S)-3-(difluoromethoxy)-2-[[(2S)-3-(difluoromethoxy)-2-[(2-morpholinoacetyl)-amino]propanoyl]amino]propanoyl]amino]-N-[(1S)-3-methyl-1-[(2R)-2-methyloxirane-2-carbonyl]butyl]-3-phenyl-propanamide] | 100% | −7.21 | >−4.00 | −5.31 |
| CC(C)C[C@H](NC(=O)[C@H](COC(F)F)NC(=O)[C@H](COC(F)F)NC(=O)[C@H](COC(F)F)NC(=O)CN1CCOCC1)C(=O)[C@@]1(C)CO1 [Example 17, (2S)-3-(difluoromethoxy)-N-[(1S)-1-(difluoromethoxymethyl)-2-[[(1S)-1-(difluoro-methoxymethyl)-2-[[(1S)-3-methyl-1-[(2R)-2-methyloxirane-2-carbonyl]butyl]amino]-2-oxo-ethyl]amino]-2-oxo-ethyl]-2-[(2-mor-pholinoacetyl)amino]-propanamide] | 100% | −6.62 | >−4.00 | −4.76 |

Source: patent US20150218212A1, “FLUORINATED EPOXYKETONE-BASED TETRAPEPTIDE COMPOUNDS AND USES THEREOF AS PROTEASOME INHIBITORS” (FLUORINOV PHARMA INC., priority 2012, published 2015)
